This is an account of results in US9096853B2, “Modified siRNA molecules incorporating 5-fluoro-2′-deoxyuridine residues to enhance cytotoxicity” (U.S. Department of Veterans Affairs, priority 2012, dated 2015).

Strand notation (5' to 3'): a small letter for the sugar, then the base; units joined by * are phosphorothioate-linked, units joined directly phosphodiester-linked; [ ] holds rarer units or linkages, { } end groups; capitals alone tell only the bases. [5FU] = 5-fluoro-2'-deoxyuridine (FdU); d = 2'-deoxy (DNA); r = 2'-OH (RNA)

The subject of data set [1] is thymidylate synthase (TS) protein. The data set can be described thus: Immunoblot analysis of TS protein (free and ITC-bound), Odyssey quantitation. The conditions noted are these: RKO cells, 5 nM for 6 hr. It is filed as cell-based, human.
Data set [2] concerns human colon cancer RKO cell line. The data set can be described thus: Clonogenic assay in RKO cells. It is filed as cell-based. The conditions noted are these: for IC50: 6 hr exposure, colonies counted after 8 days, mean ± S.D., at least 3 experiments. As to the method: RKO cells were plated in 6-well plates at a density of 600 cells/well. On the following day, cells were transfected with ssiRNA/LF2000 complexes for 6 hr after which time, the growth medium was replaced. Similarly, FdU was added to wells for 6 hr followed by medium replacement. After 8 days, cell colonies were fixed with Trypan blue solution (75% methanol/25% acetic acid/0.25% trypan blue), washed, and air-dried before counting colonies >50 cells.

Data set [3] shares this test system. The data set can be described thus: Cell proliferation assay (WST-1) in RKO cells. It is filed as cell-based. The conditions noted are these: for IC50: 6 hr exposure then 96 hr growth, mean ± S.D., at least 3 experiments; for effect on cell proliferation / cytotoxicity (in words): WST-1. Here is the method:
RKO cells were plated in 96-well plates at a density of 800 cells/well. On the following day, cells were incubated with ssiRNA/LF2000 complexes for 6 hr, after which time, the growth medium was replaced, and cells were grown for an additional 96 hr. Similarly, RKO cells were treated with FdU (#F0503, Sigma) for 6 hr followed by medium replacement and then allowed to grow for an additional 96 hr. Cell proliferation/viability was quantified by the WST-1 assay (Roche; Indianapolis, Ind.).

Data set [4] has as its system thymidylate synthase (TS) protein. The data set can be described thus: Immunoblot analysis of TS protein (free and ITC-bound), Odyssey quantitation. It is filed as cell-based, human. The conditions noted are these: RKO cells, ssiRNA 1 nM, 48 hr; for Free TS (%) / ITC-Bound TS (%): normalized to free TS protein in mock-transfected cells (LF2000) set to 100%, mean ± S.D., 6 experiments. As to the method:
FIGS. 1A-B illustrate the effect of FdU incorporation in ssiRNA on TS protein expression. RKO cells were transfected with TS6 ssiRNAs (1 nM) containing various 3′-overhangs. After 6 hr, the medium was replaced. After an additional 48 hr, cells were harvested and processed for immunoblot and qPCR analysis as described in the Materials and Methods section. (A) Representative blot from 4 experiments. (B) All qPCR values represent the mean±S.D. from at least 3 separate experiments performed in triplicate. The normalized amount of TS mRNA from mock-transfected cells (LF2000) was set to 1.0 and all other values compared against that value. ITC, inhibitory ternary complex;
Cells were plated at a density of 1.5×10^5 cells/well. On the following day, ssiRNAs were complexed with Lipofectamine 2000 (LF2000, Invitrogen) in serum-free RPMI-1640 medium and added to the plated cells. After 48 hr, cells were rinsed with PBS and scraped in cell lysis buffer (10 mM Tris pH7.4, 150 mM NaCl, 1 mM EDTA, 1% IGEPAL, 0.5% sodium deoxycholate, and 0.1% SDS) containing freshly added Protease Inhibitor Cocktail (Sigma; St. Louis, Mo.), 1 mM phenylmethylsulfonyl fluoride, and phosphatase inhibitors (Sigma). Lysates were sonicated and then centrifuged at 14,000 rpm for 30 min at 4° C. to remove debris. Cell lysates were stored at −80° C. for future use. For mRNA analysis, total RNA was extracted using Trizol (Invitrogen) and stored at −80° C. for future use.
Protein concentrations of cell lysates were determined using the DC Protein Assay (Bio-Rad; Hercules, Calif.). Equal amounts of protein (30 μg) from each cell lysate were resolved on SDS-PAGE using the method of Laemmli (Reference 19) and transferred onto 0.45 μm nitrocellulose membranes (Bio-Rad). Membranes were blocked and incubated overnight with primary antibodies at 4° C. The following antibodies were used in the experiments: anti-TS (Clone 4H4B1; Invitrogen), anti-TS (#5449; Cell Signaling; San Francisco, Calif.), anti-p21 Waf1/Cip1 (#2947; Cell Signaling), anti-p53 (#sc-126; Santa Cruz Biotechnology; Santa Cruz, Calif.), anti-PARP (#9542; Cell Signaling), anti-Fas (#4233; Cell Signaling), anti-phospho-histone H2A.X (Ser139) (#2577; Cell Signaling), anti-histone H2A.X (#7631; Cell Signaling), anti-phospho-ATM (pS1981; EPITOMICS Inc.; Burlingame, Calif.), anti-ATM (#A1106; Sigma), and anti-α-tubulin (EMD Biosciences; San Diego, Calif.). After multiple TBST washes (1×TBS, 0.1% Tween-20), membranes were incubated with corresponding horseradish peroxidase-conjugated secondary antibodies (Bio-Rad) for 1 hr at room temperature. Proteins were detected by the enhanced chemiluminescence method (SuperSignal West Pico substrate; Pierce; Rockford, Ill.). Quantitation of signal intensities was performed by densitometry on a Xerox scanner using NIH IMAGEJ software.
Immunoblots were prepared as described above. After incubation with anti-TS polyclonal antibody, membranes were blocked with the Odyssey blocking buffer and incubated with IRDye 800CW goat anti-rabbit antibody (LI-COR Biosciences; Lincoln, Nebr., USA) according to the manufacturer instructions. The fluorescent signal was detected and quantified using the Odyssey infrared imaging system (LI-COR).

The subject of data set [5] is TS mRNA sequence in opposite orientation targeted by the sense (passenger) strand. The data set can be described thus: Luciferase assay, vector with TS6 target site for the sense strand. It is filed as cell-based, human. The conditions noted are these: RKO cells, ssiRNA 0.1 nM, 24 hr. As to the method:
(§1) FIG. 3 illustrates the effect of 3′-end modification on ssiRNA strand selection. RKO cells were transfected with luciferase vectors (including the TS6 target site for either the antisense (open bars) or sense strand (hatched bars)) in combination with ssiRNAs containing different 3′-end overhangs. After 24 hr, cells were harvested and luciferase activity was determined as described in the Materials and Methods section. Firefly/renilla luciferase activity from vector-alone transfection was normalized to 100%. All values represent the mean±S.D. from at least 4 separate experiments performed in duplicate;
(§2) FIGS. 4A-C illustrate the effect of 3′-end dU incorporation on ssiRNA strand selection. RKO cells were transfected with various TS6 ssiRNAs (1 nM) for 6 hr. After an additional 48 hr, cells were harvested for immunoblot (A) and qPCR (B) analysis. (C) Luciferase vectors (containing the siRNA target site for either the sense or antisense strand) were transfected into RKO cells in combination with different ssiRNAs. After 24 hr, cells were harvested and luciferase activity was determined as described in the Materials and Methods section. Luciferase activity from vector-alone transfection was normalized to 100%. All values represent the mean±S.D. from at least 4 separate experiments performed in duplicate;
(§3) A DNA oligonucleotide corresponding to the TS6 siRNA target sequence (TS mRNA nt 1058-1077: 5′-[…]-3′- SEQ ID NO: 23) was annealed to its complimentary antisense sequence and ligated into the pGL3-Promoter plasmid (Promega; Madison, WI) at restriction sites Hind III and Nco I. The luciferase mRNA expressed from this plasmid was targeted by the antisense strand of TS6 siRNA. A second plasmid was constructed with the TS mRNA sequence inserted in the opposite orientation so that it could be targeted by the sense or passenger strand of TS6 siRNA. […] After 24 hr, cells were washed with PBS, lysed in 1×PLG buffer, and firefly and renilla luciferase levels were determined by the Dual-Luciferase™ Reporter Assay system (Promega). […]

Data set [6] concerns TS6 siRNA target sequence (TS mRNA nt 1058-1077) targeted by the antisense strand. The data set can be described thus: Luciferase assay, vector with TS6 target site for the antisense strand. It is filed as cell-based, human. The conditions noted are these: RKO cells, ssiRNA 0.1 nM, 24 hr. As to the method: as §1, §2, §3

`O=c1[nH]cc(F)c(=O)[nH]1` [5-FU, 5-fluorouracil, reference compound]: the “formation of the ITC after incubation with 5-FU” value in data set [1] is on record as “did not result in formation of the ITC”.
Take `O=c1[nH]c(=O)n([C@H]2C[C@H](O)[C@@H](CO)O2)cc1F` [FdU (TS inhibitor), 5-fluoro-2′-deoxyuridine]: the values for the 50% inhibitory concentration (IC50) in data set [2] (Homo sapiens) and in data set [3] (Homo sapiens) were 7.42 ± 1.33 nM and 6.93 ± 2.08 nM, respectively.
Regarding “Mis-dU/dA: unmodified mismatched control ssiRNA; SEQ ID NO: 19 and 20 (chain 1 GGAUACUGCCAAUCUCUAGGUUUUU; chain 2 CCUAGAGAUUGGCAGUAUCCAAAAA; chain 1: sugars from the 5' end r20 d5, backbone and T or U not given here; chain 2: sugars from the 5' end r20 d5, backbone not given here) [reference compound]”, the “effect on clonogenic growth (in words)” value in data set [2] is on record as “no effect”. For the same compound, the “effect on cell proliferation / cytotoxicity (in words)” value in data set [3] is “no effect”. In data set [4], the “Free TS (%)” value stood at 90.1 ± 14.0%.
Turning to “TS6-1xF-dU/dA: ssiRNA with a single FdU residue at the 4th position in the sense strand; SEQ ID NO: 5 and 6 (chain 1 GGAUAUUGUCAGUCUUUAGGUUUUU; chain 2 CCUAAAGACUGACAAUAUCCAAAAA; FdU at position 4 of sense strand, chemistry not fully specified)”, in data set [2], the “fold lower IC50 (greater potency) versus TS6-dU/dA, clonogenic assay” value came out at 5 fold and the midpoint of inhibition, the IC50, lay at 0.34 ± 0.08 nM. In data set [3], the “enhancement of IC50 versus TS6-dU/dA, cell growth (WST-1) assay” value is recorded as around 30 fold and half-maximal inhibition (IC50) required 2.85 ± 0.83 nM. In addition, in data set [4], the “effect on TS protein expression (in words)” value was “significantly inhibited”, the “Free TS (%)” value stood at 27.3 ± 8.3% and the “ITC-Bound TS (%)” value worked out at 4.4 ± 2.6%.
As to “TS6-2xF-dU/dA: ssiRNA with FdU on positions 16 and 18 of the antisense strand; SEQ ID NO: 17 and 18 (chain 1 GGAUAUUGUCAGUCUUUAGGUUUUU; chain 2 CCUAAAGACUGACAAUAUCCAAAAA; chain 1: sugars from the 5' end r20 d5, backbone not given here; chain 2: sugars from the 5' end rrrrrrrrrrrrrrrdrdrrddddd, [5FU] at 16, 18, backbone not given here)”, in data set [4], the “Free TS (%)” value was 54.1 ± 14.1% and the “ITC-Bound TS (%)” value is 15.4 ± 9.5%.
For “TS6-3xF-dU/dA: ssiRNA with FdU replacing U at positions 10, 16 and 18 in the antisense strand; SEQ ID NO: 15 and 16 (chain 1 GGAUAUUGUCAGUCUUUAGGUUUUU; chain 2 CCUAAAGACUGACAAUAUCCAAAAA; FdU at antisense positions 10, 16, 18, chemistry not fully specified)” the same measures were 73.6 ± 14.7% and 26.2 ± 10.7%.
Turning to “TS6-FdU/FdU: TS-targeted ssiRNA, both 3′-ends modified with FdU; SEQ ID NO: 13 and 14 (chain 1 rGrGrArUrArUrUrGrUrCrArGrUrCrUrUrUrArGrGd[5FU]d[5FU]d[5FU]d[5FU]d[5FU]; chain 2 rCrCrUrArArArGrArCrUrGrArCrArArUrArUrCrCd[5FU]d[5FU]d[5FU]d[5FU]d[5FU])”, the results for the IC50 in data set [2] and in data set [3] were 0.43 ± 0.16 nM and 0.77 ± 0.12 nM, respectively. For the same compound, the “reduced efficacy as compared to TS6-FdU/dA, clonogenic assay” value in data set [2] (p=0.01) is reported as 2 fold.
With “TS6-UU: standard TS6 siRNA with two uridine overhangs, TS-targeted; SEQ ID NO: 1 (sense) and 2 (antisense) (sense GGAUAUUGUCAGUCUUUAGGUU; antisense CCUAAAGACUGACAAUAUCCUU; RNA, backbone not given here)”, in data set [5], the “sense strand targeting, luciferase (in words)” value is reported as “suppressed”. The “antisense strand targeting, luciferase (in words)” value in data set [6] is on record as “suppressed”.
Turning to “TS6-dA/FdU: TS-targeted ssiRNA with FdU modification of the 3′-end of antisense strand; SEQ ID NO: 11 and 12 (chain 1 GGAUAUUGUCAGUCUUUAGGAAAAA; chain 2 CCUAAAGACUGACAAUAUCCUUUUU; chain 1: sugars from the 5' end r20 d5, backbone not given here; chain 2: sugars from the 5' end r20 d5, [5FU] at 21, 22, 23, 24, 25, backbone not given here)”, in data set [2], the “effect on clonogenic growth (in words)” value was “significantly less effective” and the half-inhibitory concentration (IC50) was 0.4 ± 0.2 nM. In data set [3], the IC50 was 1.27 ± 0.32 nM and the “effect on cell proliferation / cytotoxicity (in words)” value is “significantly less effective”. Also, in data set [5], the “sense strand targeting, luciferase (in words)” value was “enhanced”. In addition, the “less targeting by the antisense strand” value in data set [6] turned out to be 2 fold. For the same compound, in data set [4], the “effect on TS protein expression (in words)” value is on record as “reduced the ability”, the “Free TS (%)” value came to 48.0 ± 18.6% and the “ITC-Bound TS (%)” value came out at 30.6 ± 15.6%.
